From patent US10479986B2, “Nucleic acid constructs and methods for labeling and detecting nucleosomal DNA modifications” (THE BROAD INSTITUTE, INC., priority 2016, dated 2019)

Key:
[1] = test system: H3K27me3 levels in K562 cells; assay: Western blot of H3K27me3 levels in treated K562 cells (acid extracted histones); type: cell-based, human; conditions: 48 hr treatment
From the text: (§1) FIG. 13 is a western blot showing H3K27ac and H3K27me3 levels in K562 cells following treatment with the p300 inhibitor C646 or the EZH2 inhibitor […] (compared to a DMSO control). The total H3 is shown as loading control.
Data are typically normalized based on read numbers (“reads per million” or RPM). This presents complications when comparing between samples. To address this shortcoming, exogenous spike-in controls or semisynthetic standards were recently introduced (Bonhoure et al., 2014; Grzybowski et al., 2015; Orlando et al., 2014). The methods disclosed herein were assessed to determine whether the consistency of pooled sample processing could allow the capture of global modification levels without spike-in controls. […] After sequencing, the number of reads for H3K27ac and H3K27me3 were normalized to the number of reads for total H3.
It is noted the methods disclosed herein are preferential to open regions, as these are more sensitive to MNase digestion. This is evident in the relatively higher proportion of H3 reads that align to euchromatic regions (2-fold enrichment; compare to 1.2-fold enrichment in conventional ChIP-seq). […] To test this, Western blots to quantify H3K27me3 levels were used in MNase digested chromatin from K562 cells treated with GSK126.

[2] = test system: H3K27ac levels in K562 cells; assay: Western blot of H3K27ac levels in treated K562 cells; type: cell-based, human; conditions: 48 hr treatment, vs DMSO control
From the text: as §1
Data are typically normalized based on read numbers (“reads per million” or RPM). This presents complications when comparing between samples. To address this shortcoming, exogenous spike-in controls or semisynthetic standards were recently introduced (Bonhoure et al., 2014; Grzybowski et al., 2015; Orlando et al., 2014). The methods disclosed herein were assessed to determine whether the consistency of pooled sample processing could allow the capture of global modification levels without spike-in controls. To this end, an additional IP was included with antibody to total H3, which was used as a normalization factor for the modifications (FIG. 12). The approach for measuring global changes was tested using small molecule inhibitors. K562 cells were treated with the p300 inhibitor C646 or the EZH2 inhibitor GSK126 (Ferrari et al., 2013; McCabe et al., 2012a). Western blots confirmed that H3K27ac levels were reduced by the acetyltransferase inhibitor C646, […] (FIG. 13). […] After sequencing, the number of reads for H3K27ac and H3K27me3 were normalized to the number of reads for total H3.

[3] = test system: H3K27ac levels in K562 cells; assay: Multiplexed barcoded ChIP-seq (Mint-ChIP), H3K27ac reads normalized to total H3 reads; type: cell-based, human; conditions: 48 hours treatment
From the text: (§2) FIG. 12 is a schematic showing an example method for quantitatively normalizing sequencing data results, in accordance with certain example embodiments. The control or drug treated cells are indexed, pooled, and then split for parallel ChIP assays. The ratio between H3K27me3 reads and H3 reads is used to compare global H3K27me3 levels between sample and normalized corresponding profiles.
(§3) FIG. 14 is a set of bar graphs showing global modification levels inferred from Western blot (top) or in accordance with certain example embodiments (bottom). The respective methods were applied in parallel to the same sample of […] cells treated for 48 hours with the indicated inhibitors. The data are shown as a mean±SD of n=3 independent experiments (symbols indicate values from independent experiments).
(§4) First, procedures for simultaneously lysing and digesting chromatin from small numbers of K562 cells were modified. […]
(§5) Algorithms were developed to process Mint-ChIP seq results. First, the seq reads are de-multiplexed by index #2 to yield separate read files for each ChIP assay. Each of these read files is then further de-multiplexed by index #1 (T7-adapter barcode) to yield separate files for each sample. […] More than 90% of reads were successfully assigned to one of the T7-adapter barcodes (FIG. 5). […]

[4] = test system: H3K27me3 levels in K562 cells; assay: Multiplexed barcoded ChIP-seq (Mint-ChIP), H3K27me3 reads normalized to total H3 reads; type: cell-based, human; conditions: 48 hours treatment
From the text: as §2, §3, §4, §5

[5] = test system: H3K27me3 levels in Toledo cells; assay: Mint-ChIP global H3K27me3 levels (ratio to H3 reads) after GSK126; type: cell-based; conditions: after 72 hr
Experimental: (§6) FIG. 20 provides a set of heat maps comparing H3K27me3 (A) and H3K27ac (B) levels in different cell lines treated with GSK126, as quantified in accordance with certain example embodiments. The experiments were performed using two different MNase concentrations.
(§7) The methods disclosed herein were used to quantitatively compare H3K27me3 and H3K27ac landscapes in these three cell lines. First, the global modification levels based on the ratio of H3K27me3 (or H3K27ac) reads to H3 reads were quantified. H3K27me3 levels were 5.1-fold greater in Pfeiffer than the other cell lines, consistent with its EZH2 activating mutation (FIG. 20).
(§8) The respective mutant lines were also treated with the EZH2 inhibitor GSK126, which reduced global H3K27me3 levels (Pfeiffer: 3.4-fold; SKM-1: 3.8-fold; and Toledo: 1.4-fold after 72 hr). Pfeiffer cells, which had the largest absolute decrease in H3K27me3, were the most sensitive to GSK126 treatment (Pfeiffer: 56±11% cell death after 3 days; SKM-1: 15±10%; and Toledo: 2±15%; FIG. 24) (McCabe et al., 2012a). H3K27me3 peaks were called in the naive and drug treated cell lines. Although treatment-associated changes in H3K27me3 are masked by conventional normalization, these changes are readily evident using the quantitative normalization inherent to the methods disclosed herein (FIG. 23). Thus, the methods disclosed herein can quantify differences in global chromatin landscapes of cancer cells representing different genotypes or drug treatments.

[6] = test system: H3K27me3 levels in Pfeiffer cells; assay: as above; type: cell-based; conditions: after 72 hr
Experimental: as §6, §7, §8

[7] = test system: H3K27me3 levels in SKM-1 cells; assay: as above; type: cell-based; conditions: SKM-1, after 72 hr
Experimental: as §6, §7, §8

[8] = test system: H3K27me3 levels in K562 cells; assay: Western blot of H3K27me3 in MNase digested chromatin; type: cell-based, human; conditions: 48 hr of treatment
From the text: It is noted the methods disclosed herein are preferential to open regions, as these are more sensitive to MNase digestion. This is evident in the relatively higher proportion of H3 reads that align to euchromatic regions (2-fold enrichment; compare to 1.2-fold enrichment in conventional ChIP-seq). These ratios are small relative to enrichments in ChIP-seq peaks, which range from 5- to 100-fold. However, they could account for increased sensitivity to early changes in H3K27me3 if these were also preferential to euchromatin. To test this, Western blots to quantify H3K27me3 levels were used in MNase digested chromatin from K562 cells treated with GSK126.

SKM-1 cells = assay: Viable cell counts following GSK126 treatment; type: cell-based; conditions: SKM-1, after 3 days
Experimental: (§9) FIG. 24 provides a set of bar plots depicting viable cell counts following 72 hour GSK126 treatment of Pfeiffer, SKM-1, and Toledo. The data are shown as mean±SD of technical triplicates×n=2 independent experiments (*p<0.05, **p<0.01, and ****p<0.0001).
as §8

Toledo cells = assay: Viable cell counts following GSK126 treatment; type: cell-based; conditions: after 3 days
Experimental: as §9, §8

Pfeiffer cells = assay: Viable cell counts following GSK126 treatment; type: cell-based; conditions: after 3 days
Experimental: as §9, §8

H3K4me3 in K562 cells = assay: Multiplexed barcoded ChIP-seq (Mint-ChIP), H3K4me3 profiles with quantitative normalization to total H3; type: cell-based, human; conditions: 96 hr treatment, vs DMSO
From the text: FIG. 17 is a set of graphs showing global H3K4me3 levels inferred in accordance with certain example embodiments. The data are shown as ±SD of four replicates n=3 experiments are shown.
FIG. 18 is a graph showing H3K4me3 profiles scaled by conventional or quantitative normalization.
FIG. 19 provides a composite plot depicting average H3K4me3 in K562 cells treated with DMSO or KDM5-C70 (A) with 10 kb regions surrounding the centers of 36,875 peaks that are shown; a bar blot showing the fraction of peaks within size windows (B); and a Venn diagram showing the number of peaks detected in K562 cells treated with DMSO or KDM5-70 (C). The data were generated in accordance with certain example embodiments.
(§10) (Labelle et al., 2014). The chromatin of K562 cells treated with DMSO or KDM5-C70 for 96 hr were barcoded and pooled. H3K4me3 and total H3 were then assayed. After sequencing, normalization of the number of H3K4me3 reads to the number of H3 reads reflected global modification levels and was consistent between experiments and also with Western blot analysis (FIG. 16 and FIG. 17). […] This effect was obscured when the data were subjected to conventional RPM normalization (FIG. 18).

[9] = test system: H3K4me3 levels in K562 cells; assay: Western blot of H3K4me3 levels in treated K562 cells; type: cell-based, human; conditions: 96 hr treatment, vs DMSO
Experimental: FIG. 16 are Western blots showing increased H3K4me3 levels in K562 cells following treatment with the demethylase inhibitor KDM5-C70. The total H3 is shown as loading control and n=3 experiments are shown.
as §10

Structure (SMILES)	H3K27me3 levels (Western blot) [1]	H3K27ac levels (Western blot) [2]	ratio between H3K27ac reads and total H3 reads [3]	H3K27me3 levels (H3K27me3 reads normalized to total H3 reads) [4]	reduction of global H3K27me3 levels [5]	reduction of global H3K27me3 levels [6]	reduction of global H3K27me3 levels [7]	H3K27me3 levels (Western blot, MNase digested chromatin) [8]	cell death (SKM-1 cells)	cell death (Toledo cells)	cell death (Pfeiffer cells)	H3K4me3 coverage, domains and peaks (H3K4me3 in K562 cells)	H3K4me3 peak intensity (tracks scaled by inferred global levels) (H3K4me3 in K562 cells; quantitative normalization)	H3K4me3 levels (Western blot) [9]
CC1=NN(c2ccc(C(=O)O)cc2)C(=O)/C1=C\c1ccc(-c2cc(C)c(C)cc2[N+](=O)[O-])o1 [C646]	did not detect significant changes	reduced	decreased											
CC[C@H](C)n1cc(C)c2c(C(=O)NCc3c(C)cc(C)[nH]c3=O)cc(-c3ccc(N4CCNCC4)nc3)cc21 [GSK126]	did not detect significant changes	increased	increased	consistent reduction	1.4 fold	3.4 fold	3.8 fold	Consistent reductions	15±10%	2±15%	56±11%			
CCOC(=O)c1ccnc(CNCC(=O)N(CC)CCN(C)C)c1 [KDM5-C70]												increases H3K4me3 coverage and widens existing domains, while also generating new H3K4me3 peaks	increased peak intensity	increased
